Experimental data taken from PubChem BioAssay AID1918996 (Molecular Pharmacology Branch, DTP, NCI, 2023).

System: 349418-098-R-PDC complex spheroid growth
Assay: Anticancer human tumor 349418-098-R-PDC patient-derived lung adenocarcinoma cell line growth inhibition [AhR]
Conditions: for IC50: curve of first compound; for viability, T/C: stronger effect = lower value
Source text: Multicellular complex tumor spheroid response to aryl hydrocarbon receptor antagonists in combination with a variety of drugs and investigational agents in selected tumor cell lines
The current study was undertaken to assess response to aryl hydrocarbon receptor antagonists in combination with standard-of-care drugs and investigational agents in solid tumor complex spheroid models. Complex spheroids include a stromal component modeled by human endothelial cells (HUVEC) and fibroblasts modeled by human mesenchymal stem cells (MSCs). The concentration ranges selected for each drug and investigational agent were based upon clinically achievable concentrations if the clinical Cmax of the agent was known.
Compounds. The drugs and investigational agents: BAY 2416964 (NSC825713), GNF351 (NSC835774), CH-223191 (NSC835775), CPI-455 (NSC825282), aza-TdCyd (NSC777586), decitabine (NSC127716), belinostat (NSC758774), entinostat (NSC756642), pevonedistat (NSC761192), tazemetostat (NSC777109), talazoparib (NSC765396), olaparib (NSC753686), selinexor (NSC780203), nedisertib (M3814, NSC802822), bortezomib (NSC756655), venetoclax (NSC766270), doxorubicin (NSC123127), elimusertib (BAY189344, NSC800525), ceralasertib (AZD6738, NSC777638), TAK-243 (NSC785004), alisertib (NSC759677), etoposide (NSC141540), topotecan (NSC609699), eribulin (NSC707389), gemcitabine (NSC613327), carboplatin (NSC241240), cisplatin (NSC119875), and SN-38 (NSC673596) were obtained from the National Cancer Institute (NCI) Developmental Therapeutics Program Chemical Repository (32). The FDA-approved anticancer drug set is available from the Developmental Therapeutics Program at https://dtp.cancer.gov/organization/dscb/obtaining/available plates.htm. […] The stock solutions were prepared in dimethyl sulfoxide (DMSO, Sigma-Aldrich, St. Louis, MO, cat. D2650), except for the platinum compounds which were prepared in saline (Quality Biological, Gaithersburg, MD, cat. 114-055-101), at 800-fold the tested concentration and stored at -70 degrees C prior to their use. All drugs and investigational agents were tested over a range starting from a high concentration at or near the clinical Cmax and decreasing in half-log increments. If the clinical Cmax for an agent had not been determined, the highest concentration tested was 10 microM (Table 1).
Cell Culture. All cells were maintained in an incubator at 37 degrees C and 5% CO2 with 95% humidity. The PDC lines were cultured according to standard operating procedures established by the NCI PDMR (https://pdmr.cancer.gov). Briefly, all PDCs were thawed and cultured in Matrigel-coated flasks prepared with a working solution of 1X Ham's F-12 nutrient mix, without supplementation (Invitrogen, Waltham, MA, cat. 11765054), 100 U/mL penicillin-streptomycin (Invitrogen, cat. 15140122), and 2.5% Matrigel (Corning Inc., Corning, NY, cat. 354248) for the first three passages. All PDCs were cultured in complete DMEM/F-12 media containing advanced DMEM/F-12 (Invitrogen, cat. 12634028), 4.9% defined fetal bovine serum, heat inactivated (HyClone Laboratories Inc., Logan, UT, cat. SH30070.03HI), 389 ng/mL hydrocortisone (Sigma-Aldrich, cat. H4001), 9.7 ng/mL human EGF recombinant protein (Invitrogen, cat. PHG0313), 23.4 microg/mL adenine (Sigma-Aldrich, cat. A2786), 97.3 U/mL penicillin-streptomycin (Invitrogen, cat. 15140122), 1.9 mM L-glutamine (Invitrogen, cat. 25030081), and 9.7 microM Y-27632 dihydrochloride (Tocris Bioscience, Bristol, United Kingdom, cat. 1254). The PDCs were cultured in complete DMEM/F12 media without 10 microM Y-27632 dihydrochloride for at least two passages prior to the screen. The established cell lines NCI-H1341 and […] were cultured in DMEM/F-12, HEPES (Invitrogen, cat. 11330032), 5% defined fetal bovine serum (HyClone Laboratories Inc., cat. SH30070.03), ITS premix universal culture supplement [insulin (5 microg/mL), transferrin (5 microg/mL), and selenious acid (5 ng/mL)] […]

[1] = second compound 0.1 µM, first compound 0.0316 µM
[2] = second compound 0.1 µM, first compound 0.1 µM
[3] = second compound 0.1 µM, first compound 0.316 µM
[4] = second compound 0.1 µM, first compound 1 µM
[5] = second compound 0.1 µM, first compound 3.16 µM
[6] = second compound 0.1 µM, first compound 10 µM
[7] = second compound 0.316 µM, first compound 0.0316 µM
[8] = second compound 0.316 µM, first compound 0.1 µM
[9] = second compound 0.316 µM, first compound 0.316 µM
[10] = second compound 0.316 µM, first compound 1 µM
[11] = second compound 0.316 µM, first compound 3.16 µM
[12] = second compound 0.316 µM, first compound 10 µM
[13] = second compound 1 µM, first compound 0.0316 µM
[14] = second compound 1 µM, first compound 0.1 µM
[15] = second compound 1 µM, first compound 0.316 µM
[16] = second compound 1 µM, first compound 1 µM
[17] = second compound 1 µM, first compound 3.16 µM
[18] = second compound 1 µM, first compound 10 µM
[19] = second compound 3.16 µM, first compound 0.0316 µM
[20] = second compound 3.16 µM, first compound 0.1 µM
[21] = second compound 3.16 µM, first compound 0.316 µM
[22] = second compound 3.16 µM, first compound 1 µM
[23] = second compound 3.16 µM, first compound 3.16 µM
[24] = second compound 3.16 µM, first compound 10 µM
[25] = second compound 10 µM, first compound 0.0316 µM
[26] = second compound 10 µM, first compound 0.1 µM
[27] = second compound 10 µM, first compound 0.316 µM
[28] = second compound 10 µM, first compound 1 µM
[29] = second compound 10 µM, first compound 3.16 µM
[30] = second compound 10 µM, first compound 10 µM
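Note: spheroids exposed to agents for seven days before luminescence viability read.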
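Throughout, for viability, T/C: spheroids also contain HUVEC endothelial cells and human MSC stroma.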

SMILES: CCc1c2c(nc3ccc(O)cc13)-c1cc3c(c(=O)n1C2)COC(=O)[C@]3(O)CC + CC(CO)NC(=O)c1cc(-c2ccc(Cl)cc2)nn(-c2cnn(C)c2)c1=O
- IC50 (second compound 0.1 µM): < 0.949 nM
- IC50 (second compound 0.316 µM): < 0.949 nM
- IC50 (second compound 1 µM): < 0.949 nM
- IC50 (second compound 3.16 µM): < 0.949 nM
- IC50 (second compound 10 µM): < 0.949 nM
- viability, T/C (second compound 0.1 µM, first compound 0.000949 µM): 42.1%
- viability, T/C (second compound 0.1 µM, first compound 0.003 µM): 37.1%
- viability, T/C (second compound 0.1 µM, first compound 0.00949 µM): 18.3%
- viability, T/C (second compound 0.1 µM, first compound 0.03 µM): 8.94%
- viability, T/C (second compound 0.1 µM, first compound 0.0949 µM): 5.8%
- viability, T/C (second compound 0.1 µM, first compound 0.3 µM): 3.72%
- viability, T/C (second compound 0.316 µM, first compound 0.000949 µM): 34.2%
- viability, T/C (second compound 0.316 µM, first compound 0.003 µM): 30.5%
- viability, T/C (second compound 0.316 µM, first compound 0.00949 µM): 13.1%
- viability, T/C (second compound 0.316 µM, first compound 0.03 µM): 7.93%
- viability, T/C (second compound 0.316 µM, first compound 0.0949 µM): 5.5%
- viability, T/C (second compound 0.316 µM, first compound 0.3 µM): 4.2%
- viability, T/C (second compound 1 µM, first compound 0.000949 µM): 33.9%
- viability, T/C (second compound 1 µM, first compound 0.003 µM): 21%
- viability, T/C (second compound 1 µM, first compound 0.00949 µM): 14.2%
- viability, T/C (second compound 1 µM, first compound 0.03 µM): 9.54%
- viability, T/C (second compound 1 µM, first compound 0.0949 µM): 8.88%
- viability, T/C (second compound 1 µM, first compound 0.3 µM): 4.3%
- viability, T/C (second compound 3.16 µM, first compound 0.000949 µM): 22.4%
- viability, T/C (second compound 3.16 µM, first compound 0.003 µM): 18.9%
- viability, T/C (second compound 3.16 µM, first compound 0.00949 µM): 13%
- viability, T/C (second compound 3.16 µM, first compound 0.03 µM): 7.97%
- viability, T/C (second compound 3.16 µM, first compound 0.0949 µM): 6.24%
- viability, T/C (second compound 3.16 µM, first compound 0.3 µM): 4.5%
- viability, T/C (second compound 10 µM, first compound 0.000949 µM): 20.1%
- viability, T/C (second compound 10 µM, first compound 0.003 µM): 17.4%
- viability, T/C (second compound 10 µM, first compound 0.00949 µM): 12.2%
- viability, T/C (second compound 10 µM, first compound 0.03 µM): 8.79%
- viability, T/C (second compound 10 µM, first compound 0.0949 µM): 6.32%
- viability, T/C (second compound 10 µM, first compound 0.3 µM): 5.7%

SMILES: Nc1ccn(C2OC(CO)C(O)C2(F)F)c(=O)n1 (stereo not given) + CC(CO)NC(=O)c1cc(-c2ccc(Cl)cc2)nn(-c2cnn(C)c2)c1=O
- IC50 (second compound 0.1 µM): < 31.6 nM
- IC50 (second compound 0.316 µM): < 31.6 nM
- IC50 (second compound 1 µM): < 31.6 nM
- IC50 (second compound 3.16 µM): < 31.6 nM
- IC50 (second compound 10 µM): < 31.6 nM
- viability, T/C [1]: 11.7%
- viability, T/C [2]: 13.3%
- viability, T/C [3]: 12.8%
- viability, T/C [4]: 10.8%
- viability, T/C [5]: 9.89%
- viability, T/C [6]: 7.31%
- viability, T/C [7]: 11.5%
- viability, T/C [8]: 12.5%
- viability, T/C [9]: 13.3%
- viability, T/C [10]: 10.6%
- viability, T/C [11]: 9.24%
- viability, T/C [12]: 6.37%
- viability, T/C [13]: 12.7%
- viability, T/C [14]: 13.5%
- viability, T/C [15]: 13.3%
- viability, T/C [16]: 11.2%
- viability, T/C [17]: 8.78%
- viability, T/C [18]: 5.77%
- viability, T/C [19]: 12.1%
- viability, T/C [20]: 13.4%
- viability, T/C [21]: 12.8%
- viability, T/C [22]: 9.14%
- viability, T/C [23]: 7.92%
- viability, T/C [24]: 7.72%
- viability, T/C [25]: 12.3%
- viability, T/C [26]: 11%
- viability, T/C [27]: 11.6%
- viability, T/C [28]: 8.92%
- viability, T/C [29]: 7.77%
- viability, T/C [30]: 8.23%

SMILES: O=C(c1cc(Cc2n[nH]c(=O)c3ccccc23)ccc1F)N1CCN(C(=O)C2CC2)CC1 + CC(CO)NC(=O)c1cc(-c2ccc(Cl)cc2)nn(-c2cnn(C)c2)c1=O
- IC50 (second compound 0.1 µM): > 10000 nM
- IC50 (second compound 0.316 µM): 5210 nM
- IC50 (second compound 1 µM): 7430 nM
- IC50 (second compound 3.16 µM): 3540 nM
- IC50 (second compound 10 µM): 482 nM
- viability, T/C [1]: 84.2%
- viability, T/C [2]: 81.6%
- viability, T/C [3]: 82.8%
- viability, T/C [4]: 101%
- viability, T/C [5]: 64.2%
- viability, T/C [6]: 60.1%
- viability, T/C [7]: 101%
- viability, T/C [8]: 101%
- viability, T/C [9]: 89.7%
- viability, T/C [10]: 64.4%
- viability, T/C [11]: 63.6%
- viability, T/C [12]: 39.2%
- viability, T/C [13]: 95.5%
- viability, T/C [14]: 74.4%
- viability, T/C [15]: 73.7%
- viability, T/C [16]: 66.9%
- viability, T/C [17]: 59.8%
- viability, T/C [18]: 44.8%
- viability, T/C [19]: 85.4%
- viability, T/C [20]: 87.9%
- viability, T/C [21]: 77.9%
- viability, T/C [22]: 61.2%
- viability, T/C [23]: 55.2%
- viability, T/C [24]: 33.7%
- viability, T/C [25]: 42.1%
- viability, T/C [26]: 60.6%
- viability, T/C [27]: 58.6%
- viability, T/C [28]: 43.5%
- viability, T/C [29]: 38.3%
- viability, T/C [30]: 33.7%
